The values below come from patent US4996201A, “4-(N-substituted amino)-2-butynyl-1-carbamates and thiocarbamates and derivatives thereof as centrally acting muscarinic agents” (Warner-Lambert Co., priority 1989, dated 1991).

The conditions of data set [1]: in vivo; cited from earlier work.
The subject of data set [2] is central muscarinic antagonist site. The format is binding. The conditions noted are these: rat cerebral cortex tissue; radiolabeled quinuclidinyl benzilate; (1 μM); read-out: RQNB IC50.
The subject of data set [3] is human SK-N-SH cells bearing muscarinic binding sites. The data set is described as follows: Muscarinic Induced Inositol Phosphate Accumulation Assay (MIPA). The format is cell-based. The conditions noted are these: inositol phosphate production, concentration for response 50% of the maximum, read-out: Agonist Response ED50. Here is the method: In the Muscarinic Induced Inositol Phosphate Accumulation Assay (MIPA) human SK-N-SH cells bearing muscarinic binding sites are incubated with the test compound. The production of inositol phosphates is then measured. Stimulation of inositol phosphate turnover reflects the degree of muscarinic agonist activity of the test compound. The concentration of test compound required to produce a response 50% of the maximum is then determined.

Data set [4] addresses central muscarinic agonist site. The data set is described as follows: Receptor [3H]Cis-methyldioxalane Assay (RCMD), central muscarinic agonist site binding. The note with it: rat cerebral cortex tissue; radiolabeled cis-methyldioxalane; head also prints (0.1 μM).
The subject of a further data set is laboratory rats. The data set is described as follows: Scopolamine Induced Swimming Assay (SIS). The format is in vivo, rat. The note with it: for reversal of scopolamine-induced swimming hyperactivity: rats given scopolamine, result in words. Here is the method: In the Scopolamine Induced Swimming Assay (SIS) the ability of a test compound to reverse the hyperactive swimming behavior of laboratory rats given scopolamine is determined. In the assay, untreated rats generally swim between 20 to 30 meters during a five-minute test period. […] The effect of scopolamine is centrally mediated. Thus, the ability of the test compound to reverse the hyperactive swimming behavior induced by scopolamine is a measure of the central cholinergic activity of the compound.

The test system of data set [5] is aged humans and nonhuman primates. The note with it: acetylcholinesterase inhibitor; cited from earlier work.
For data set [6] the following is noted: in vivo; cited from earlier work. The source holds these as a separate data set.
The next data set concerns mice. The note with it: cited from earlier work.

The structures appear in SMILES notation. Where a name gives a salt, the structure may show the parent alone.

As to `Nc1ccncc1N` [3,4-diaminopyridine], in data set [1], the age-related cognitive deficits result is “ameliorate age-related cognitive deficits”.

For the compound `COC(=O)N(C)CC#CCN1CCCC1` [Example 1, Methyl[methyl4-(1-pyrrolidinyl]-2-butynyl]]-carbamate, ethanedioate (1:1) (salt)], the IC50 in data set [2] was determined as 2660 nM; in data set [4], 14.3 nM. The EC50 in data set [3] is 10000 nM. For the same compound, the minimal effective dose in the data set on laboratory rats (Rattus norvegicus, Minimal Effective Dose to reverse scopolamine (0.1 mg/kg) induced hyperactive swimming in rats, read-out: Reversal of SIS Hyperactivity MED) was 10 mg/kg.

For the compound `COC(=O)N(C)CC#CCN1CCCCC1` [Example 1f, Methyl methyl[4-(1-piperidinyl]-2-butynyl-carbamate, ethanedioate (1:1) (salt)], the half-maximal inhibitory concentration (IC50) in data set [2] was 4990 nM; in data set [4], 1570 nM.

On to `COC(=O)N(C)CC#CCN1CCCCCC1` [Example 1g, Methyl[4-(hexahydro-1H-azepin-1-yl]-2-butynyl]methylcarbamate, ethanedioate (1:1) (salt)], for which the IC50 amounted to 1950 nM in data set [2] and 958 nM in data set [4].

As to `COC(=O)N(C)CC#CCN(C)C` [Example 2, Methyl[4-(dimethylamino)-2-butynyl]methyl-carbamate, ethanedioate (1:1)(salt)], the IC50 in data set [2] is 46600 nM; in data set [4], 63 nM. The EC50 in data set [3] is 59200 nM.

With `COC(=O)C1=CCCN(C)C1` [arecoline], in the data set on laboratory rats, the “reversal of scopolamine-induced swimming hyperactivity” value is reported as “can be reversed”.

Take `CNC(=O)Oc1ccc2c(c1)[C@]1(C)CCN(C)[C@@H]1N2C` [physostigmine]: the memory result in data set [5] is reported as “improved memory”. The “reversal of scopolamine-induced swimming hyperactivity” value in the data set on laboratory rats is “can be reversed”.

With `CN1[C@@H]2C[C@@H](OC(=O)[C@H](CO)c3ccccc3)C[C@H]1[C@@H]1O[C@@H]12` [scopolamine], the “swimming distance increase above baseline values” with laboratory rats (scopolamine 0.1 mg/kg, five-minute test period, rats) is on record as 75-125%.

Consider `C(#CCN1CCCC1)CN1CCCC1` [tremorine, 1,4-dipyrrolidino-2-butyne], for which the “conversion to active metabolite oxotremorine” value in data set [6] is given as “converted to an active metabolite, oxotremorine”. In the data set on mice, the “duration of profound tremor of the head and limbs” value is on record as “more than one”.

In general, IC50 refers to the concentration at which inhibition is half-maximal.
